# Measured values reported in ChEMBL document CHEMBL3885881, “DrugMatrix”.
# Organism: Rattus norvegicus
# Assay: DrugMatrix - Regimen: Daily Repeat
# Assay type: toxicity, organism-based, Sprague-Dawley
# Parameters: regimen Daily Repeat, gender Male, age 6-8 weeks
# Conditions: in vivo, po, 100 mg/kg, route oral GAVAGE, dose level Low, vehicle .5 % CMC; for ABSOLUTE BASOPHIL / ABSOLUTE EOSINOPHIL / ABSOLUTE LYMPHOCYTE / ABSOLUTE MONOCYTE / ABSOLUTE SEGMENTED NEUTROPHIL / BASOPHIL / EOSINOPHIL / ERYTHROCYTE COUNT / HEMATOCRIT / HEMOGLOBIN / LEUKOCYTE COUNT / LYMPHOCYTE / MEAN CORPUSCULAR HEMOGLOBIN / MEAN CORPUSCULAR HEMOGLOBIN CONCENTRATION / MEAN CORPUSCULAR VOLUME / MONOCYTE / NEUTROPHIL / NUCLEATED RED BLOOD CELLS / PLATELET COUNT: tissue Blood; for ALANINE AMINOTRANSFERASE / ALBUMIN / ALKALINE PHOSPHATASE / ASPARTATE AMINOTRANSFERASE / BLOOD UREA NITROGEN / CARBON DIOXIDE / CHLORIDE / CHOLESTEROL / CREATINE PHOSPHOKINASE / CREATININE / GLUCOSE / LACTATE DEHYDROGENASE / LIPASE / PHOSPHORUS / POTASSIUM / SODIUM / TOTAL BILIRUBIN / TOTAL PROTEIN / URIC ACID: tissue Plasma
compound,measurement,setting,value
CC=Cc1ccc(O)c(OC)c1 [ISOEUGENOL],ABSOLUTE BASOPHIL,"72 h, time 3 day",0 CELLS/uL
same,ABSOLUTE EOSINOPHIL,"72 h, time 3 day",0 CELLS/uL
same,ABSOLUTE LYMPHOCYTE,"72 h, time 3 day",15444.33 CELLS/uL
same,ABSOLUTE MONOCYTE,"72 h, time 3 day",342 CELLS/uL
same,ABSOLUTE SEGMENTED NEUTROPHIL,"72 h, time 3 day",1847 CELLS/uL
same,BASOPHIL,"72 h, time 3 day",0%
same,EOSINOPHIL,"72 h, time 3 day",0%
same,ERYTHROCYTE COUNT,"72 h, time 3 day",5.62 x10E6/uL
same,HEMATOCRIT,"72 h, time 3 day",36.7%
same,HEMOGLOBIN,"72 h, time 3 day",13.83 G/DL
same,LEUKOCYTE COUNT,"72 h, time 3 day",17.63 x10E3/uL
same,LYMPHOCYTE,"72 h, time 3 day",87.33%
same,MEAN CORPUSCULAR HEMOGLOBIN,"72 h, time 3 day",24.63 pg
same,MEAN CORPUSCULAR HEMOGLOBIN CONCENTRATION,"72 h, time 3 day",37.77 G/DL
same,MEAN CORPUSCULAR VOLUME,"72 h, time 3 day",65.23 fL
same,MONOCYTE,"72 h, time 3 day",2%
same,NEUTROPHIL,"72 h, time 3 day",10.67%
same,NUCLEATED RED BLOOD CELLS,"72 h, time 3 day",0 /100WBC
same,PLATELET COUNT,"72 h, time 3 day",1262 x10E3/uL
same,ALANINE AMINOTRANSFERASE,"72 h, time 3 day",53.33 u/L
same,ALBUMIN,"72 h, time 3 day",4.73 G/DL
same,ALKALINE PHOSPHATASE,"72 h, time 3 day",338.67 u/L
same,ASPARTATE AMINOTRANSFERASE,"72 h, time 3 day",88.33 u/L
same,BLOOD UREA NITROGEN,"72 h, time 3 day",17.67 mg/dL
same,CARBON DIOXIDE,"72 h, time 3 day",23.67 mmol/L
same,CHLORIDE,"72 h, time 3 day",102 MEQ/L
same,CHOLESTEROL,"72 h, time 3 day",66.67 mg/dL
same,CREATINE PHOSPHOKINASE,"72 h, time 3 day",312.33 u/L
same,CREATININE,"72 h, time 3 day",0.17 mg/dL
same,GLUCOSE,"72 h, time 3 day",143 mg/dL
same,LACTATE DEHYDROGENASE,"72 h, time 3 day",280.33 u/L
same,LIPASE,"72 h, time 3 day",9.33 u/L
same,PHOSPHORUS,"72 h, time 3 day",11.33 mg/dL
same,POTASSIUM,"72 h, time 3 day",6.23 MEQ/L
same,SODIUM,"72 h, time 3 day",144.93 MEQ/L
same,TOTAL BILIRUBIN,"72 h, time 3 day",0.23 mg/dL
same,TOTAL PROTEIN,"72 h, time 3 day",5.83 G/DL
same,URIC ACID,"72 h, time 3 day",1.8 mg/dL
same,ABSOLUTE BASOPHIL,"120 h, time 5 day",0 CELLS/uL
same,ABSOLUTE EOSINOPHIL,"120 h, time 5 day",450 CELLS/uL
same,ABSOLUTE LYMPHOCYTE,"120 h, time 5 day",12545.67 CELLS/uL
same,ABSOLUTE MONOCYTE,"120 h, time 5 day",392.67 CELLS/uL
same,ABSOLUTE SEGMENTED NEUTROPHIL,"120 h, time 5 day",1645 CELLS/uL
same,BASOPHIL,"120 h, time 5 day",0%
same,EOSINOPHIL,"120 h, time 5 day",3%
same,ERYTHROCYTE COUNT,"120 h, time 5 day",5.9 x10E6/uL
same,HEMATOCRIT,"120 h, time 5 day",36%
same,HEMOGLOBIN,"120 h, time 5 day",13.27 G/DL
same,LEUKOCYTE COUNT,"120 h, time 5 day",15.03 x10E3/uL
same,LYMPHOCYTE,"120 h, time 5 day",83.33%
same,MEAN CORPUSCULAR HEMOGLOBIN,"120 h, time 5 day",22.57 pg
same,MEAN CORPUSCULAR HEMOGLOBIN CONCENTRATION,"120 h, time 5 day",36.83 G/DL
same,MEAN CORPUSCULAR VOLUME,"120 h, time 5 day",61.17 fL
same,MONOCYTE,"120 h, time 5 day",2.67%
same,NEUTROPHIL,"120 h, time 5 day",11%
same,NUCLEATED RED BLOOD CELLS,"120 h, time 5 day",0 /100WBC
same,PLATELET COUNT,"120 h, time 5 day",1402 x10E3/uL
same,ALANINE AMINOTRANSFERASE,"120 h, time 5 day",47.67 u/L
same,ALBUMIN,"120 h, time 5 day",4.37 G/DL
same,ALKALINE PHOSPHATASE,"120 h, time 5 day",345.67 u/L
same,ASPARTATE AMINOTRANSFERASE,"120 h, time 5 day",83.33 u/L
same,BLOOD UREA NITROGEN,"120 h, time 5 day",18 mg/dL
same,CARBON DIOXIDE,"120 h, time 5 day",23.67 mmol/L
same,CHLORIDE,"120 h, time 5 day",109.67 MEQ/L
same,CHOLESTEROL,"120 h, time 5 day",58 mg/dL
same,CREATINE PHOSPHOKINASE,"120 h, time 5 day",251.33 u/L
same,CREATININE,"120 h, time 5 day",0.21 mg/dL
same,GLUCOSE,"120 h, time 5 day",141 mg/dL
same,LACTATE DEHYDROGENASE,"120 h, time 5 day",180.67 u/L
same,LIPASE,"120 h, time 5 day",9 u/L
same,PHOSPHORUS,"120 h, time 5 day",11.17 mg/dL
same,POTASSIUM,"120 h, time 5 day",6.1 MEQ/L
same,SODIUM,"120 h, time 5 day",146.53 MEQ/L
same,TOTAL BILIRUBIN,"120 h, time 5 day",0.2 mg/dL
same,TOTAL PROTEIN,"120 h, time 5 day",6.13 G/DL
same,URIC ACID,"120 h, time 5 day",1.57 mg/dL
